Test results published in patent US20240366728A1, “Treatment of Diabetes Mellitus” (Carmot Therapeutics Inc., priority 2023, published 2024).
pEC50: −log10 of the molar value.

Assays:
in vivo [1] = conditions: CD-1, mouse, plasma, sc
Description: (§3) First reader's note: The heading '1 mg/kg SC mouse' is printed over the plot above the table and gives dose, route and species for the pharmacokinetic parameters.

[2] = tested on: lean C57BL/6J, GLP-1R+/+ and GLP-1R-/- mice; test: single intracerebroventricular injection: food consumption and body weight; conditions: for food consumption and body weight (in words) / body weight decreased / body weight decreased compared to liraglutide / food consumption lowered compared to liraglutide / food consumption lowered compared to vehicle: ICV 0.025 nmol; for body weight decreased / body weight decreased compared to liraglutide / food consumption lowered compared to liraglutide / food consumption lowered compared to vehicle: lean C57BL/6J
[3] = tested on: GLP-1R+/+ and GLP-1R-/- mice; test: intraperitoneal glucose tolerance test in GLP-1R+/+ and GLP-1R-/- mice
[4] = tested on: lean participants and participants with overweight/obesity; test: Phase 1 first-in-human SAD/MAD study: safety and tolerability; type: in vivo; conditions: for safety and tolerability (in words): no up-titration
Description: (§1) This was a randomized, double-blind, placebo-controlled, dose escalation first-in-human (FIH) conducted from December 2018 to January 2020 at a study center in Victoria, Australia in accordance with principles of the Declaration of Helsinki (Ethical Principles for Medical Research Involving Human Subjects), and the NHMRC National Statement on Ethical Conduct in Human Research 2007 (updated 2018). (Registered on the Australian New Zealand Clinical Trials Registry [ANZCTR] under the identifier: ACTRN12618001988246).
(§2) Daily doses were given on Day 2 to Day 14. Cohort M1 was dosed with the highest dose level, determined based on the safety and PK data from the preceding Part 1 (SAD), and doses were decreased sequentially for Cohorts M2 and M3 (FIG. 46B).
Following study drug administration, Part 1 (SAD) participants underwent safety and other assessments on Day 3 and Day 8 (±1 day, outpatient) and were followed for at least 30 days after the last administered dose of study drug. Part 2 (MAD) participants underwent safety and other assessments and discharged in the absence of clinically significant safety signals, following completion of all Day 16 assessments. All participants were followed for at least 30 days after the last administered dose of study drug. Participants were follow-up for safety and other assessments on Day 21 (±2 days, outpatient) and Day 44 (±3 days, teleconference).
The primary endpoints were the incidence, nature and severity of AEs, safety laboratory analytes, vital signs, electrocardiograms (ECGs), and incidence of events of special interest (AESI).
Adverse events were coded using the Medical Dictionary for Regulatory Activities (MedDRAR Version 21.1). The number of participants experiencing treatment-emergent AEs (TEAEs) and number of individual TEAEs are summarized by treatment, SOC, and PT. TEAEs are also summarized by severity and by relationship to study drug. AESIs are listed and summarized by treatment group. Listings of AEs leading to discontinuation of the study, SAEs and deaths, are provided as applicable.

in vivo [5] = conditions: male, CD-1, mouse, sc
Description: Blood was kept on ice until centrifuged at 4600 rpm for five minutes at 4° C. Plasma was stored at −80° C. until analysis. Compounds were extracted from plasma and quantified against a standard curve using an AB Sciex 7500+LC-MS/MS system (FIG. 5).

[6] = Phase 1 first-in-human SAD/MAD study: pharmacokinetics; type: in vivo; conditions: for Tmax: median Tmax
Description: as §1, §2
Characterization of PK profile: PK parameters included maximum concentration (Cmax), time to maximum concentration (Tmax), area under the plasma concentration-time curve (AUC). Blood samples were collected within two hours prior to dosing for pre-dose samples and within ±10 minutes of the nominal/planned time post-dose. For Part 1 (SAD) participants, samples were taken at −2 to 0 hr (pre-dose), 1, 2, 3, 4, 6, 8, 12, 16, 20 hr (Day 1), 24, 30, 36 hr (Day 2), 48 hr (Day 3) and on Day 8 (±1 day, follow-up) post-dose. For Part 2 (MAD) participants, collection occurred −2 to 0 hr (pre-dose), 2, 3, 4, 6, 8, 12 hr (Day 1), 24 hr (Day 2), 48, 60 hr (Day 3), 72 hr (Day 4), 96 hr (Day 5). For Days 7, 8, 11 and 14, samples were taken −2 to 0 hr (pre-dose), 12 hr on Day 7, 2, 4, 6, 8, 12 hr on Day 14, 24, 36 hr on Day 15, 48 hr on Day 16 and on Day 21 (+1 day, follow-up) post-dose.
Estimates for PK parameters are tabulated and summarized by descriptive statistics (mean, standard deviation [SD], median, minimum, and maximum, coefficient of variation [CV %], geometric mean and geometric CV %). Dose proportionality was analyzed using the power model with log-transformed PK parameter values and log-transformed dose. The power model was used to estimate the slope parameter and the 90% confidence intervals (CIs) for the slope. Dose proportionality was generally concluded if the 90% CIs around the slope estimate include the value of 1.

human GLP-1R = human GLP-1R (Homo sapiens, UniProt P43220); test: cAMP accumulation, SNAP-human GLP-1R CHO-K1 cells
human GLP-1R, sequence (P43220 24-463): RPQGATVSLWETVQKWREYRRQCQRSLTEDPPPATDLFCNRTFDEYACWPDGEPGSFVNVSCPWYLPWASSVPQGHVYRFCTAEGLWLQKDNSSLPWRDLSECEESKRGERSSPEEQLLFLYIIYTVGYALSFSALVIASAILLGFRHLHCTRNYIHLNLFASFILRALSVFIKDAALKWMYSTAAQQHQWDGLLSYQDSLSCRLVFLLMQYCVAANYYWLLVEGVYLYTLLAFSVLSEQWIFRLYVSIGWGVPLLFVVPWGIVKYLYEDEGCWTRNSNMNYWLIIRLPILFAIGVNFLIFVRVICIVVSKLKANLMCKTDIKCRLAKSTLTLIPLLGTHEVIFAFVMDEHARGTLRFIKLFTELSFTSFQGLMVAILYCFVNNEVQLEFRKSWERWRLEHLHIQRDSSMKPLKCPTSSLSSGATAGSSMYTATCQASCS

Description for 1 mg/kg SC mouse: as §3

## CCCCCCCCCCCCCCCC(=O)N[C@@H](CCC(=O)NCCCC[C@H](NC(=O)[C@H](CO)NC(=O)[C@@H]1CCCN1C(=O)[C@@H]1CCCN1C(=O)[C@@H]1CCCN1C(=O)[C@H](C)NC(=O)CNC(=O)[C@H](CO)NC(=O)[C@H](CO)NC(=O)[C@@H]1CCCN1C(=O)CNC(=O)CNC(=O)[C@H](C)NC(=O)[C@H](CC(C)C)NC(=O)[C@H](CC(C)C)NC(=O)[C@H](Cc1c[nH]c2ccccc12)NC(=O)[C@H](CC(N)=O)NC(=O)[C@@H](NC(=O)[C@H](Cc1ccccc1)NC(=O)[C@H](CCC(=O)O)NC(=O)C(C)(C)NC(=O)[C@H](C)NC(=O)[C@H](C)NC(=O)[C@H](CCC(N)=O)NC(=O)[C@H](CCCCN)NC(=O)[C@H](CC(=O)O)NC(=O)[C@H](CC(C)C)NC(=O)[C@H](Cc1ccc(O)cc1)NC(=O)[C@@H](NC(=O)[C@H](CO)NC(=O)[C@H](Cc1ccc(O)cc1)NC(=O)[C@H](CC(=O)O)NC(=O)[C@H](CO)NC(=O)[C@@H](NC(=O)[C@H](Cc1ccccc1)NC(=O)[C@@H](NC(=O)CNC(=O)[C@H](CCC(=O)O)NC(=O)CSCC(=O)NCCN1C(=O)CSC1=O)[C@@H](C)O)[C@@H](C)O)[C@@H](C)CC)C(C)C)C(N)=O)C(=O)O [CT-859]
In vivo [1]
  Cmax: 324 nM
  half-life: 8.72 h
1 mg/kg SC mouse
  AUClast: 3.579 µM·h
  Tmax: 4.0 h
[2]
  food consumption and body weight vs liraglutide after ICV (in words): decreased food consumption and body weight more than liraglutide
[2]; GLP-1R+/+ mice
  food consumption and body weight (in words): suppressed food consumption and reduced body weight
[2]; GLP-1R-/- mice
  food consumption and body weight (in words): no effect
[2]; GLP-1R-KO mice, 0.025 and 1 nmol/kg
  food consumption, body weight, blood glucose after ICV (in words): did not have any significant effects on food consumption, body weight, or blood glucose
[2]; GLP-1R-WT mice, 0.025 and 1 nmol/kg, up to 72 h
  food consumption, body weight after ICV (in words): dose dependent reduction of cumulative food consumption
[2]; 24 hours
  body weight decreased: 9%
  body weight decreased compared to liraglutide: 5%
  food consumption lowered compared to liraglutide: 45%
  food consumption lowered compared to vehicle: 63%
[2]; 48 hours
  body weight decreased: 5%
  body weight decreased compared to liraglutide: 5%
  food consumption lowered compared to liraglutide: 27%
  food consumption lowered compared to vehicle: 38%
[2]; wildtype mice, ICV […], up to 19 h
  food intake and body weight vs equal dose of liraglutide (in words): significantly greater reduction of food intake and body weight
[3]; GLP-1R knockout mice, 20 nmol/kg
  GLUC AUC during IPGTT (in words): no effect on GLUC AUC
[3]; GLP-1R+/+ mice, 200 nmol/kg
  glucose levels lowered: 75%
[3]; GLP-1R+/+ mice, 20 and 200 nmol/kg
  glucose lowering (in words): lowered the post-prandial glucose levels equally and significantly compared to vehicle
[3]; GLP-1R-/- mice, 20 nmol/kg
  glucose lowering (in words): ineffective at lowering glucose levels
[3]; GLP-1R-/- mice, 200 nmol/kg
  glucose levels lowered compared to vehicle: 46%

## CCCCCCCCCCCCCCCC(=O)N[C@@H](CCC(=O)NCCCC[C@H](NC(=O)[C@H](CO)NC(=O)[C@@H]1CCCN1C(=O)[C@@H]1CCCN1C(=O)[C@@H]1CCCN1C(=O)[C@H](C)NC(=O)CNC(=O)[C@H](CO)NC(=O)[C@H](CO)NC(=O)[C@@H]1CCCN1C(=O)CNC(=O)CNC(=O)[C@H](C)NC(=O)[C@H](CC(C)C)NC(=O)[C@H](CC(C)C)NC(=O)[C@H](Cc1c[nH]c2ccccc12)NC(=O)[C@H](CC(N)=O)NC(=O)[C@@H](NC(=O)[C@H](Cc1ccccc1)NC(=O)[C@H](CCC(=O)O)NC(=O)C(C)(C)NC(=O)[C@H](C)NC(=O)[C@H](C)NC(=O)[C@H](CCC(N)=O)NC(=O)[C@H](CCCCN)NC(=O)[C@H](CC(=O)O)NC(=O)[C@H](CC(C)C)NC(=O)[C@H](Cc1ccc(O)cc1)NC(=O)[C@@H](NC(=O)[C@H](CO)NC(=O)[C@H](Cc1ccc(O)cc1)NC(=O)[C@H](CC(=O)O)NC(=O)[C@H](CO)NC(=O)[C@@H](NC(=O)[C@H](Cc1ccccc1)NC(=O)[C@@H](NC(=O)CNC(=O)[C@H](CCC(=O)O)NC(=O)CSCC(=O)NCCN1CCCCC1=O)[C@@H](C)O)[C@@H](C)O)[C@@H](C)CC)C(C)C)C(N)=O)C(=O)O [CT-868]
[4]; MAD 0.75 mg
  participants reporting only nausea: 2/6
[4]; MAD 1.5 mg
  participants with abdominal pain: 1/6
  participants with constipation: 4/6
  participants with diarrhea: 1/6
  participants with gastrointestinal symptoms: 4/6
  participants with nausea: 2/6
  participants with vomiting: 2/6
[4]; MAD 5.0 mg
  mild to moderate gastrointestinal symptoms (in words): reported by all six participants
[4]; MAD 5.0 mg, mild nausea and vomiting
  drug withdrawal due to drug-related TEAEs (in words): One participant
[4]; SAD
  maximum tolerated single dose: 7.5 mg
[4]; SAD 7.5 mg, two events of nausea and one of diarrhea
  participants with drug-related TEAEs: 50%
[4]; SAD 11.0 mg, twelve events, all drug-related
  participants with gastrointestinal TEAEs: 100%
[4]; SAD and MAD phases
  SAEs and drug-induced hypoglycemia (in words): no serious adverse events (SAEs) or drug-induced hypoglycemia events
[4]; single doses up to 7.5 mg, up to 1.5 mg/day for 14 days
  safety and tolerability (in words): generally safe and well tolerated
[4]; up to 11 mg single dose, up to 5 mg/day for 14 days
  safety and tolerability (in words): safe and well tolerated
In vivo [5]
  AUC(0-inf): 7.92 µM·h
  half-life: 7 h
[6]; MAD 0.75-5.0 mg
  plasma concentrations after 14 days of dosing vs dose (in words): dose-related but not dose-proportional
  plasma concentrations over repeated daily dosing (in words): reached a plateau after a few days of dosing
[6]; human, in vivo, 0.5 mg
  Tmax: 3 h
[6]; human, in vivo, 1.5 mg
  AUC0-t: 154.2 [45.7%] h*ng/ml
  AUC(0-inf): 184.9 [47.6%] h*ng/ml
  Cmax, geometric mean (% CV): 5.62 [28.1%] ng/ml
  half-life: 77.3 h
  median Tmax: 8.0 h
  Tmax: 6 h
[6]; human, in vivo, 1.5 mg, AUC0-inf
  AUC(0-inf): 209 ng·h/mL
[6]; human, in vivo, 1.5 mg, AUC0-t
  AUC0-t: 167 ng·h/mL
[6]; human, in vivo, 1.5 mg, Cmax, geometric mean (% CV)
  Cmax: 7.79 ng/mL
[6]; human, in vivo, 7.5 mg
  Tmax: 20 h
[6]; human, in vivo, 11 mg
  half-life: 19.7 h
[6]; human, in vivo, predominant range
  Tmax: 3 to 12 h
[6]; in vivo
  mean Cmax vs dose (in words): increased with increasing dose level
  time to maximum plasma concentrations after the first dose: 48 to 96 h
Human GLP-1R; CHO-K1, read-out: hGLP-1R cAMP (-alb) % Emax
  Emax: 92%
Human GLP-1R; potency activating cAMP at human GLP-1R, value of b126
  pEC50: ~9.77
